Data published in ChEMBL document CHEMBL1154339, “Pyranocoumarins: a new class of anti-hyperglycemic and anti-dyslipidemic agents” (Bioorg Med Chem Lett, 2009).
Calls of active or inactive are those of the source. The rule behind the calls is not given here.

Tests used:
[1] = Inhibition of glycogen phosphorylase assessed as inorganic phosphate release at 100 uM
[2] = target: T1, Glucose-6-phosphatase catalytic subunit 1 (Homo sapiens) (UniProt P35575); experiment: Inhibition of glucose 6 phosphatase assessed as inorganic phosphate release at 100 uM
T1 sequence (whole entry): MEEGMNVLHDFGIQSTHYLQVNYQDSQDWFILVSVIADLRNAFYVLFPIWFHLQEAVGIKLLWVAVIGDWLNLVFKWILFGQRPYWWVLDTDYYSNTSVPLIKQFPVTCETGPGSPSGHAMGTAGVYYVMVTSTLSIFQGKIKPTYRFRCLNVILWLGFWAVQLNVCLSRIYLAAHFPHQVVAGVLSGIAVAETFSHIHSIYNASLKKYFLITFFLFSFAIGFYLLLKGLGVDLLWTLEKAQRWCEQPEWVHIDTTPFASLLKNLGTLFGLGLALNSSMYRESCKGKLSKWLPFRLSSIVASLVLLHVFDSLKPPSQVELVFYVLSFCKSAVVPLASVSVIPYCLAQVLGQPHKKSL

[3] = target: Dipeptidyl peptidase 4 (Homo sapiens) (UniProt P27487); experiment: Inhibition of DPP4 at 100 uM
[4] = target: T2, Tyrosine-protein phosphatase non-receptor type 1 (Homo sapiens) (UniProt P18031); experiment: Inhibition of PTP1B at 100 uM
T2 sequence (whole entry): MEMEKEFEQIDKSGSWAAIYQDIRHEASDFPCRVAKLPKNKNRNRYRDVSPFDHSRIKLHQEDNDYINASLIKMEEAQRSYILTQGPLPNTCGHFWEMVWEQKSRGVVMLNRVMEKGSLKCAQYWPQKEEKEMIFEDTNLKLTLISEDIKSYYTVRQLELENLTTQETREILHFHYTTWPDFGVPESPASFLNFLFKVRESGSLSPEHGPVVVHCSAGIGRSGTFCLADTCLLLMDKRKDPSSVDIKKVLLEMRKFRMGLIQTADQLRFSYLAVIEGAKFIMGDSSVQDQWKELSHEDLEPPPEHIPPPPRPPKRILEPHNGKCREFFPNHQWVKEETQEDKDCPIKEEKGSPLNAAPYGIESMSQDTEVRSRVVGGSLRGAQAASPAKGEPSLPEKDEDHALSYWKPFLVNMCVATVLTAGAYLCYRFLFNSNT

[5] = target: Maltase-glucoamylase (Homo sapiens) (UniProt O43451); experiment: Inhibition of alpha-glucosidase at 100 uM
[6] = system: Rattus norvegicus; experiment: Antihyperglycemic activity in sucrose loaded Charles Foster/Wistar rat model assessed as reduction in blood glucose level at 100 mg/kg; format: functional; set-up: scale not given: the % may be the effect or the level left
[7] = target: T3, Tyrosine-protein phosphatase non-receptor type 1 (Homo sapiens, UniProt P18031); experiment: Inhibition of PTP1B
T3 sequence (P18031 whole entry): T2 sequence (whole entry)

[8] = system: Rattus norvegicus; experiment: Antihyperglycemic activity in sucrose challenged streptozotocin-induced diabetic Sprague-Dawley rat model assessed as reduction in blood glucose level at 100 mg/kg after 24 hrs; format: functional; set-up: scale not given: the % may be the effect or the level left
[9] = system: Mus musculus; experiment: Antihyperglycemic in leptin receptor deficient mouse C57BL/KsBom-db assessed as blood glucose lowering activity at 100 mg/kg after 10 days by oral glucose tolerance test; format: functional
[10] = system: Rattus norvegicus; experiment: Antidyslipidemic activity against triton WR-1339-induced hyperlipidemia in Charles Foster rat assessed as reduction in plasma triglyceride level at 100 mg/kg, po after 18 hrs; format: functional
[11] = system: Mus musculus; experiment: Antihyperglycemic in leptin receptor deficient mouse C57BL/KsBom-db assessed as blood glucose lowering activity at 100 mg/kg after 5 days by oral glucose tolerance test; format: functional
[12] = system: Rattus norvegicus; experiment: Antidyslipidemic activity against triton WR-1339-induced hyperlipidemia in Charles Foster rat assessed as reduction in plasma total cholesterol level at 100 mg/kg, po after 18 hrs; format: functional
[13] = system: Rattus norvegicus; experiment: Antidyslipidemic activity against triton WR-1339-induced hyperlipidemia in Charles Foster rat assessed as reduction in plasma phospholipid level at 100 mg/kg, po after 18 hrs; format: functional

Chain of Maltase-glucoamylase (Homo sapiens) (O43451 whole entry, looked up): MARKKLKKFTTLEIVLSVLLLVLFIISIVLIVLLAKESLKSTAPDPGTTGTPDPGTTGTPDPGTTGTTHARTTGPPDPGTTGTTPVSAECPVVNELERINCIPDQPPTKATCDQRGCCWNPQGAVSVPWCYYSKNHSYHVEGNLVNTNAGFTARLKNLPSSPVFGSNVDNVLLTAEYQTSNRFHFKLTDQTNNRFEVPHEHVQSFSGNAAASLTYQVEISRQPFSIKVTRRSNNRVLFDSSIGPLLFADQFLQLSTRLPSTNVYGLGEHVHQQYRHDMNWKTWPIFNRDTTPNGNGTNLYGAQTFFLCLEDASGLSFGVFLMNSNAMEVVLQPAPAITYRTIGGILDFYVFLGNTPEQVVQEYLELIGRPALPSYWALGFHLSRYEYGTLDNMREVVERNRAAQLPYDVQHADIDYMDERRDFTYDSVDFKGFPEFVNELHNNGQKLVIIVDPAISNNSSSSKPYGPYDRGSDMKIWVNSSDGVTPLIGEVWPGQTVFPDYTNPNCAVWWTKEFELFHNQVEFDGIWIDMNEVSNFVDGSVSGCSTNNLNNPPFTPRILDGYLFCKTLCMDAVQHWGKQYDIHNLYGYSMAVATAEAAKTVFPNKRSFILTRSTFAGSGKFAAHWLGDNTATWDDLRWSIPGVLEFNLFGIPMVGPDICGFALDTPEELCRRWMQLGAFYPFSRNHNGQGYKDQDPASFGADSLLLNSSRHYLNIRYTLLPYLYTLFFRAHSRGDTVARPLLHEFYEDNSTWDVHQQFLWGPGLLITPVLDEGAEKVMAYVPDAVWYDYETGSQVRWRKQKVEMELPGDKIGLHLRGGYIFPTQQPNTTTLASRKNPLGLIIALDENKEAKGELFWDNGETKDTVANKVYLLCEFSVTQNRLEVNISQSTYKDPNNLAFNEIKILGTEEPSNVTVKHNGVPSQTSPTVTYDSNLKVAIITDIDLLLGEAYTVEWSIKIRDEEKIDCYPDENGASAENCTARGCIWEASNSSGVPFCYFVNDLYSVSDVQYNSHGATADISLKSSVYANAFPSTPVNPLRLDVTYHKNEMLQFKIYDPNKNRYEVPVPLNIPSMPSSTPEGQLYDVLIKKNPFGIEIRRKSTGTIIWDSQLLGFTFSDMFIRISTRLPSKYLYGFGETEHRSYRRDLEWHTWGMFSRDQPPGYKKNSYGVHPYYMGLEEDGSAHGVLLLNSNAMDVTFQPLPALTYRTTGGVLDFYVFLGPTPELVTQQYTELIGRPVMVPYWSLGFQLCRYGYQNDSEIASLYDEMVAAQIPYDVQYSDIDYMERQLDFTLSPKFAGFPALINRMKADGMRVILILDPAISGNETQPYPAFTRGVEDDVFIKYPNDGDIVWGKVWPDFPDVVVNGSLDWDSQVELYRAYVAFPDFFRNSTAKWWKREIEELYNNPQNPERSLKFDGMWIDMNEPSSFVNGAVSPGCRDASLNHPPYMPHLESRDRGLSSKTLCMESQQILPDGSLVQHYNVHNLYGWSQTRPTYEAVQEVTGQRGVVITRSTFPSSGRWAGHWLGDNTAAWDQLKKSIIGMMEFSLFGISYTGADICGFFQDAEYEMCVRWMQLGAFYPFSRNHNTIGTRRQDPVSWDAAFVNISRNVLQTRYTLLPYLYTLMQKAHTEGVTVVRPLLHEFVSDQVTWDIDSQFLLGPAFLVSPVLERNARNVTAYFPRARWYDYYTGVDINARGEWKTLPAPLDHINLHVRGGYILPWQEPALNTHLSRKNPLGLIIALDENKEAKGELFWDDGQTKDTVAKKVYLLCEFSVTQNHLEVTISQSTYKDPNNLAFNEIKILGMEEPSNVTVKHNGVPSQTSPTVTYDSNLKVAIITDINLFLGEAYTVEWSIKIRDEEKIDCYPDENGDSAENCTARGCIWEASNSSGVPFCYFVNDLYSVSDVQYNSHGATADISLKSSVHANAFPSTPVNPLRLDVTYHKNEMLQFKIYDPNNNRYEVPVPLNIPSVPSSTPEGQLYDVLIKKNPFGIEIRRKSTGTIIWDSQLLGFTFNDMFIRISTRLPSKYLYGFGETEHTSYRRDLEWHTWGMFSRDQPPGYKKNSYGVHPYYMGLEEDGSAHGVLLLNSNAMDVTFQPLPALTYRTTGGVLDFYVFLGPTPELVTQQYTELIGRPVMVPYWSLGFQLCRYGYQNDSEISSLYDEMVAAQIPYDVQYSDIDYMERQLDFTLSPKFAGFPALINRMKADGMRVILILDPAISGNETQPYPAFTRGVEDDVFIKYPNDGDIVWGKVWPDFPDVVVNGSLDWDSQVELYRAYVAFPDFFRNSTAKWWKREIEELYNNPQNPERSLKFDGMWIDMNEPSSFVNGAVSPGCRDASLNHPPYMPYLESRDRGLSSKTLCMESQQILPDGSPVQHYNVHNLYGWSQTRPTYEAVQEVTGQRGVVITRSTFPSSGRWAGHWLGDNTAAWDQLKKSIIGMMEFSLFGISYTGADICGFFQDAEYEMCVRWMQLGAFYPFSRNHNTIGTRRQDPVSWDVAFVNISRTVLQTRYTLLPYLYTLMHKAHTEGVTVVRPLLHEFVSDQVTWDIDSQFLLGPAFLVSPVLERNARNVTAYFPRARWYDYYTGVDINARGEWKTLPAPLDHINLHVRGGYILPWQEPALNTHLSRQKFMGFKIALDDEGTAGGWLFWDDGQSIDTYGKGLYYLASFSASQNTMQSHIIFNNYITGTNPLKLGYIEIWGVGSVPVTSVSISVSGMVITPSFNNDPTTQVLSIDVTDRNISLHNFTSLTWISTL
Chain of Dipeptidyl peptidase 4 (Homo sapiens) (P27487 whole entry, looked up): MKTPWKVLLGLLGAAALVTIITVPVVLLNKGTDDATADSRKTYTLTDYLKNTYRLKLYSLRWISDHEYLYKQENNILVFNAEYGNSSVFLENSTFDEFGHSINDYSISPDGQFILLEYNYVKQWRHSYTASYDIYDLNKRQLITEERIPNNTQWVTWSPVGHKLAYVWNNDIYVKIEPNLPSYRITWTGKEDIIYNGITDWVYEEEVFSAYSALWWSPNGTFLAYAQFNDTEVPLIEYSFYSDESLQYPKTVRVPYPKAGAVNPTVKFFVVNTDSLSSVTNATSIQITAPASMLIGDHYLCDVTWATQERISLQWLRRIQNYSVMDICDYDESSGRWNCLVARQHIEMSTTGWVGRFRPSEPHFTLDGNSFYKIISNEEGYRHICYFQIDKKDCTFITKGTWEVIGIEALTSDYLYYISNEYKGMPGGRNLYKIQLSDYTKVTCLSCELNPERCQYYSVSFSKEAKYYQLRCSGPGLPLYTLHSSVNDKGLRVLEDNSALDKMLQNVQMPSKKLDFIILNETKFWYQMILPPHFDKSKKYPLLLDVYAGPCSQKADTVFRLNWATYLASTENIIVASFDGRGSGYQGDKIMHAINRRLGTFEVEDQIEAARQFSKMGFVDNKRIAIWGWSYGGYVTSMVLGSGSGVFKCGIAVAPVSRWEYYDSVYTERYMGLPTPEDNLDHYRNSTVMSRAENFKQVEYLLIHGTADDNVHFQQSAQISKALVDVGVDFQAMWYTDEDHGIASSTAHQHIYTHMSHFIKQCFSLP

| SMILES | inhibition [1] | inhibition [2] | inhibition [3] | inhibition [4] | inhibition [5] | IC50 [7] | Activity [6] | Activity [8] | Activity [9] | Activity [10] | Activity [11] | Activity [12] | Activity [13] |
| --- | --- | --- | --- | --- | --- | --- | --- | --- | --- | --- | --- | --- | --- |
| Cc1cc(=O)oc2c3c(ccc12)OCC(CN1CCN(c2ccccn2)CC1)(CN1CCN(c2ccccn2)CC1)C3=O | 11% | 28% | 9.8% | 41.3% | 15.8% | – | – | – | – | – | – | – | – |
| CCN(CC)CC1(CN(CC)CC)COc2ccc3c(C)cc(=O)oc3c2C1=O | 12.2% | 9.45% | 8.1% | 41.3% | 8.5% | – | – | – | – | – | – | – | – |
| Cc1cc(=O)oc2c3c(ccc12)OCC(CN1CCN(C)CC1)(CN1CCN(C)CC1)C3=O | 10.2% | 13% | 12.5% | 22% | 6.4% | – | – | – | – | – | – | – | – |
| Cc1ccc(C)c(OCCCC(C)(C)C(=O)O)c1 [GEMFIBROZIL] | – | – | – | – | – | – | – | – | – | 36.1% | – | 37.1% | 39.1% |
| CCOCC1(CN2CCN(c3ccccn3)CC2)COc2ccc3c(C)cc(=O)oc3c2C1=O (stereo not drawn) | 30.1% | 9.67% | inactive | 54.5% | 11.3% | 76.2 µM | – | – | – | – | – | – | – |
| Cc1cc(=O)oc2c3c(ccc12)OCC(CN1CCOCC1)(CN1CCOCC1)C3=O | 12.8% | 6.78% | 8.8% | 24.7% | 8.3% | – | – | – | – | – | – | – | – |
| CCCCN(CCCC)CC1(CN(CCCC)CCCC)COc2ccc3c(C)cc(=O)oc3c2C1=O | 11.1% | 20.4% | 11.4% | 43.6% | inactive | – | – | – | – | – | – | – | – |
| Cc1cc(=O)oc2c3c(ccc12)OCC(CN1CCN(c2ccccc2)CC1)(CN1CCN(c2ccccc2)CC1)C3=O | 22.1% | 21.5% | 15.2% | 28.7% | 15.9% | – | – | – | – | – | – | – | – |
| CCCCN(CCCC)CC1(COCC)COc2ccc3c(C)cc(=O)oc3c2C1=O (stereo not drawn) | 8.7% | 11.1% | inactive | 80.5% | 27.9% | 40.5 µM | 30.6% | 24.4% | – | Active | – | Active | Active |
| CCOCC1(CN2CCN(c3ccccc3)CC2)COc2ccc3c(C)cc(=O)oc3c2C1=O (stereo not drawn) | inactive | 31.7% | inactive | 62.3% | 16.2% | 70.6 µM | – | – | – | – | – | – | – |
| CCOCC1(CN(CC)CC)COc2ccc3c(C)cc(=O)oc3c2C1=O (stereo not drawn) | inactive | 24.2% | inactive | 74.1% | inactive | 90.4 µM | – | – | – | Active | – | Active | Active |

Second part, led by results:

| inhibition [1] | inhibition [2] | inhibition [3] | inhibition [4] | inhibition [5] | IC50 [7] | SMILES | Activity [6] | Activity [8] | Activity [9] | Activity [10] | Activity [11] | Activity [12] | Activity [13] |
| --- | --- | --- | --- | --- | --- | --- | --- | --- | --- | --- | --- | --- | --- |
| 8.3% | 8.31% | 13.2% | 72.1% | 12% | 82.7 µM | CCOCC1(CN2CCCC2)COc2ccc3c(C)cc(=O)oc3c2C1=O (stereo not drawn) | 31.8% | 28.8% | – | – | – | – | – |
| 8.5% | 6.56% | 12.6% | 88.5% | inactive | 36.2 µM | CCOCC1(CN2CCCCC2)COc2ccc3c(C)cc(=O)oc3c2C1=O (stereo not drawn) | 38.1% | 37.7% | 42% | Active | 19.5% | Active | Active |
| inactive | 3.5% | 12% | 83.3% | 34.3% | 52.4 µM | Cc1cc(=O)oc2c3c(ccc12)OCC(CO)(CN1CCOCC1)C3=O (stereo not drawn) | 28.2% | 25.3% | – | Active | – | Active | Active |
| 15.2% | 8.28% | 8.2% | 29.8% | inactive | – | Cc1cc(=O)oc2c3c(ccc12)OCC(CN1CCCC1)(CN1CCCC1)C3=O | – | – | – | – | – | – | – |
| 26.9% | 17.4% | 7.9% | 70.3% | inactive | 65.5 µM | CCOCC1(CN2CCN(C)CC2)COc2ccc3c(C)cc(=O)oc3c2C1=O (stereo not drawn) | 32.5% | 18.7% | – | Active | – | Active | Active |
| 17.2% | 13.8% | 6.8% | 33.3% | 7.3% | – | Cc1cc(=O)oc2c3c(ccc12)OCC(CN1CCCCC1)(CN1CCCCC1)C3=O | – | – | – | – | – | – | – |
| 8.3% | 5.83% | 8.3% | 74.6% | 22.1% | 56.7 µM | Cc1cc(=O)oc2c3c(ccc12)OCC(CO)(CN1CCCC1)C3=O (stereo not drawn) | 30.3% | 24% | – | – | – | – | – |
| inactive | 7.36% | inactive | 64% | 37.3% | 62.1 µM | Cc1cc(=O)oc2c3c(ccc12)OCC(CO)(CN1CCCCC1)C3=O (stereo not drawn) | – | – | – | Active | – | Active | Active |
| 8.4% | 12.4% | inactive | 92.2% | inactive | 24.5 µM | CCOCC1(CN2CCOCC2)COc2ccc3c(C)cc(=O)oc3c2C1=O (stereo not drawn) | 35.5% | 35.5% | 38% | Active | 21.1% | Active | Active |
